Measured values reported in patent publication US11542295B2, “Use of 20-hydroxyecdysone and the derivatives thereof in the treatment of myopathies” (BIOPHYTIS, priority 2017, dated 2023).

Columns and labels:
[1] = tested on: BMP4 (bone morphogenetic protein 4); assay: Heart mRNA expression of BMP4 (semi-quantitative PCR); type: in vivo, mouse; settings: mdx mice, 50 mg/kg*day, two months; p=0.0529
Experimental: (§1) Twelve-week-old C57BL10 gene pool (wild mice referred to as “C57” in the figures) and C57BL10 mdx (mouse model of Duchenne muscular dystrophy, referred to as “mdx” in the figures) male mice, produced at Charles Rivers, were used. Two groups of mdx were chronically exposed per os either to BIO101 (number of mice n=9) or to BIO103 (number of mice n=9) at a dose of 50 mg/kg*day. A group of C57 mice (number of mice n=5) and a group of mdx mice (number of mice n=15) received the vehicle, i.e. no treatment. The animals of all of the groups were tested for their functional capacity (exertion tolerance test) after two months of treatment. […]
(§2) An assessment of markers of fibrosis and cardiac hypertrophy is carried out at the end of the protocol, i.e. after two months of treatment. […] The extract RNA is quantified by spectrophotometry then the quality thereof is verified and validated with the Experion RNA StdSens Analysis Kit (Bio-Rad). […] Finally, semi-quantitative PCR analysis was carried out using SYBR® Green (Roche), a DNA intercalating agent and a LightCycler® 480 Real Time PCR (Roche) apparatus on 384-well plates. The molecular markers measured are as follows: • CTGF and collagen I: connective tissue growth factor (CTGF) is associated with healing and with many pathological fibrotic processes including DMD (Brigstock 2010; Song Y. 2017). […]

ERK1/2 = ERK1/2 phosphorylation in human DMD myocytes (Western Blot); type: cell-based; settings: 10 μM, 10 minutes to 24 hours, vs untreated control
Experimental: (§3) Human DMD skeletal muscle cells (KM571DMD1OFL Cl1) were differentiated for 5 days then optionally incubated with BIO101 at 10 μM for periods of between 10 minutes and 24 hours.
(§4) A densitometric analysis of results of at least 6 independent Western Blot experiments described the effects of BIO101 on the phosphorylation of AKT (FIG. 8A) and ERK1/2 (FIG. 8B) is shown, *p<0.05 versus the untreated control.

[2] = tested on: Human DMD skeletal muscle cells (KM571DMD10FL Cl1); assay: Differentiation of human DMD myoblasts into myotubes; type: cell-based; settings: 10 μM, vs untreated control cells
Experimental: Various parameters have been measured to assess myotube differentiation. Human DMD skeletal muscle cells (KM571DMD10FL Cl1) were differentiated for 3 days then incubated with or without BIO101 at 10 μM. The fusion index and the number of nuclei per myotube were validated as relevant and sensitive indicators of myotube differentiation.
The fusion index illustrated in FIG. 7A represents the percentage of differentiated cell nuclei with respect to the cell total.
The number of nuclei per myotube is illustrated in FIG. 7B, 300 myotubes were counted.
The myotube diameter is illustrated in FIG. 7C, 150 myotubes were measured per condition.
The results in FIGS. 7A,7B and 7C show the mean data measured during three independent experiments, plus or minus the standard error (SEM).

AKT = AKT phosphorylation in human DMD myocytes (Western Blot); type: cell-based; settings: 10 μM, 10 minutes to 24 hours, vs untreated control
Experimental: as §3, §4

Col1a1 (collagen 1) = assay: Heart mRNA expression of fibrosis marker Col1a1 (semi-quantitative PCR); type: in vivo, mouse; settings: mdx mice, 50 mg/kg*day, two months
Experimental: as §1, §2

[3] = tested on: tibialis anterior muscle of C57BL10 mdx mice; assay: Histological study of tibialis anterior muscle stained with Sirius Red (fibrotic area); type: in vivo, mouse; settings: 50 mg/kg*day, two months, p=0.0709
Experimental: Twelve-week-old C57BL10 gene pool (wild mice referred to as “C57” in the figures) and C57BL10 mdx (mouse model of Duchenne muscular dystrophy, referred to as “mdx” in the figures) male mice, produced at Charles Rivers, were used. Two groups of mdx were chronically exposed per os either to BIO101 (number of mice n=9) or to BIO103 (number of mice n=9) at a dose of 50 mg/kg*day. A group of C57 mice (number of mice n=5) and a group of mdx mice (number of mice n=15) received the vehicle, i.e. no treatment. The animals of all of the groups were tested for their functional capacity (exertion tolerance test) after two months of treatment. The exertion tolerance test consists of measuring the maximum distance travelled (in-toto activity; FIGS. 1A and 1B). Furthermore, measurements of the maximum absolute isometric strength of the tibialis anterior muscle (in-situ activity; FIGS. 2A and 2B) were made after two months of treatment.
An assessment of muscle fibrosis by histological study is carried out on the tibialis anterior muscle (abbreviated as TA). Histological sections (7 μm) are produced and stained either with haematoxylin eosin (HE) or with Sirius Red (SR).
An anatomopathological analysis of the sections of tibialis anterior muscle stained with SR makes it possible to quantify the fibrotic area. […]

## CC(C)(O)CC[C@@H](O)[C@](C)(O)[C@H]1CC[C@@]2(O)C3=CC(=O)[C@@H]4C[C@@H](O)[C@@H](O)C[C@]4(C)[C@H]3CC[C@]12C [BIO101, 20-hydroxyecdysone]
[1]
  genic expression of BMP4 in heart compared to control mdx animals: reduces
ERK1/2
  p-ERK1/2 (phosphorylation of ERK1/2): significant increase
[2]; p<0.001
  increase in the myotube diameter: 21%
  increase of the fusion index: +7%
[2]; p<0.01
  increase in the number of nuclei per myotube: 34%
AKT
  p-AKT (phosphorylation of AKT): significant increase

## CCSCC(=O)[C@H]1CC[C@@]2(O)C3=CC(=O)[C@@H]4C[C@@H](O)[C@@H](O)C[C@]4(C)C3CC[C@]12C (stereo partly drawn) [BIO103, (2S,3R,5R,10R,13R,14S,17S)-17-(2-ethylsulfanylacetyl)-2,3,14-trihydroxy-10,13-dimethyl-2,3,4,5,9,11,12,15,16,17-decahydro-1H-cyclopenta[a]phenanthren-6-one]
Col1a1 (collagen 1)
  genic expression of Col1a1 in heart compared to control mdx animals: tends to prevent
[3]
  onset of fibrosis (percentage area corresponding to fibrosis) compared to the control mdx group: clearly tends to prevent
